Patent US9718790B2, “Triazine derivative and pharmaceutical composition having an analgesic activity comprising the same” (SHIONOGI & CO., LTD., priority 2010, dated 2017)

molecular target: human P2X3 receptor (Homo sapiens (Human), UniProt P56373); assay: Evaluation of human P2X3 receptor inhibitory activity (Fluo-3 calcium fluorescence, FDSS 3000, ATP stimulation); type: cell-based; details: C6BU-1 cells stably expressing human P2X3 receptor;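 further: stimulus was 50 nM ATP with fluorescence followed for 3 min, and the response per well was peak post-ATP fluorescence divided by the reading at measurement start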
Sequence (P56373 whole entry): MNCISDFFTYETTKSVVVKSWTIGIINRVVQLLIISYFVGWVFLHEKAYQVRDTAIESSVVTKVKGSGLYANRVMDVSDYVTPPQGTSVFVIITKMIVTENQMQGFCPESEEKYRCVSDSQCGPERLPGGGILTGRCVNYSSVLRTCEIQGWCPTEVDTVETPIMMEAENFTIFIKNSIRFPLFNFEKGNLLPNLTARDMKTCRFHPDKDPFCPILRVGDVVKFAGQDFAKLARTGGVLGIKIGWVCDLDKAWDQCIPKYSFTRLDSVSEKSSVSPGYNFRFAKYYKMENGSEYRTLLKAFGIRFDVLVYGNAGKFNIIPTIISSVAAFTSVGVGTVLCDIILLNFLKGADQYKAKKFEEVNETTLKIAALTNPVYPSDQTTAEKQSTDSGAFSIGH

| Compound | IC50 [µM] |
| --- | --- |
| COc1ccc(CN2C(=O)CC[C@H]2Cn2c(=O)[nH]/c(=N\c3ccc(OC(C)C)c(F)c3)n(Cc3ccc(Cl)cc3)c2=O)cc1 [Compound I-0684] | 0.03 |
| CCOC(=O)[C@@H](C)Cn1c(=O)[nH]/c(=N\c2ccc3oc(CO)cc3c2)n(Cc2ccc(Cl)cc2)c1=O [Compound I-1971] | 0.061 |
| CCCCOc1ccc(/N=c2\[nH]c(=O)n(C[C@H](C)C(=O)OC)c(=O)n2Cc2ccc(C)cc2)cc1 [Compound I-0816] | 0.037 |
| CCn1c(=O)[nH]/c(=N\c2ccc(Oc3ccc(C(=O)O)cc3)cc2)n(Cc2ccc(Cl)cc2)c1=O [Compound I-1969] | 0.021 |
| CCCc1ccc(/N=c2\[nH]c(=O)n(C[C@H](C)C(=O)OC)c(=O)n2Cc2ccc(C)cc2)cc1OC [Compound I-1360] | 0.032 |
| CCOC(=O)COc1ccc(/N=c2\[nH]c(=O)n(CC)c(=O)n2Cc2ccc(Cl)cc2)cc1 [Compound I-1989] | 0.619 |
| CCn1c(=O)[nH]/c(=N\c2ccc(Oc3ccsc3C(=O)O)cc2)n(Cc2ccc(Cl)cc2)c1=O [Compound I-2041] | 0.109 |
| Cc1nc2ccc(/N=c3\[nH]c(=O)n([C@@H](C)[C@@H](C)C(=O)O)c(=O)n3Cc3ccc(Cl)cc3)cc2s1 [Compound I-1469] | 0.009 |
| Cc1cc(/N=c2\[nH]c(=O)n(CCC(=O)O)c(=O)n2Cc2ccc(Cl)cc2)ccc1CC(C)C [Compound I-1255] | 0.048 |
| COC(=O)[C@@H](C)Cn1c(=O)[nH]/c(=N\c2ccc(CC(C)C)c(Cl)c2)n(Cc2ccc(C)cc2)c1=O [Compound I-1371] | 0.009 |
| COc1cc(/N=c2\[nH]c(=O)n(CCO)c(=O)n2Cc2ccc(Cl)cc2)ccc1OC(C)C [Compound I-2006] | 0.036 |
| CC[C@@H](CC(=O)OC)n1c(=O)[nH]/c(=N\c2ccc(OC(C)C)c(C)c2)n(Cc2ccc(Cl)cc2)c1=O [Compound I-0782] | 0.192 |
| COc1cc(/N=c2\[nH]c(=O)n(CCCO)c(=O)n2Cc2ccc(Cl)cc2)ccc1OC(C)C [Compound I-2002] | 0.008 |
| CCCc1ccc(/N=c2\[nH]c(=O)n(C[C@H](C)C(=O)O)c(=O)n2Cc2ccc(C)cc2)cc1OC [Compound I-1365] | 0.094 |
| CC(C)Oc1ccc(/N=c2\[nH]c(=O)n(CCc3n[nH]c(=O)o3)c(=O)n2Cc2ccc(Cl)cc2)cc1F [Compound I-0646] | 0.028 |
| Cc1ccc(Cn2c(=O)n(CCC(=O)O)c(=O)[nH]/c2=N\c2ccc(Oc3ccncc3)cc2)cc1 [Compound I-1228] | 0.009 |
| Cc1ccc(Cn2c(=O)n([C@H](C)[C@H](C)C(=O)O)c(=O)[nH]/c2=N\c2ccc(OC(C)C)c(F)c2)cc1 [Compound I-1338] | 0.036 |
| CC(C)Oc1ccc(/N=c2\[nH]c(=O)n(Cc3nnn[nH]3)c(=O)n2Cc2ccc(Cl)cc2)cc1F [Compound I-1297] | 0.026 |
| COC(=O)[C@H](C)[C@H](C)n1c(=O)[nH]/c(=N\c2ccc(N3CCCCC3)cc2)n(Cc2ccc(Cl)cc2)c1=O [Compound I-1380] | 0.026 |
| CO/N=C(\Cn1c(=O)[nH]/c(=N\c2ccc(OC(C)C)c(C)c2)n(Cc2ccc(Cl)cc2)c1=O)C(=O)O [Compound I-0756] | 0.131 |
| Cc1cc(/N=c2\[nH]c(=O)n(CCCC(=O)N3CCOCC3)c(=O)n2Cc2ccc(Cl)cc2)ccc1OC(C)C [Compound I-0787] | 0.024 |
| C=Cc1cc(/N=c2\[nH]c(=O)n(CCC(=O)OCC)c(=O)n2Cc2ccc(C)cc2)ccc1OC(C)C [Compound I-1190] | 0.005 |
| CCCCCc1ccc(/N=c2\[nH]c(=O)n(C[C@H](C)C(=O)OC)c(=O)n2Cc2ccc(C)cc2)cc1 [Compound I-1203] | 0.532 |
| C[C@H](C(=O)O)[C@@H](C)n1c(=O)[nH]/c(=N\c2ccc(OC3CCC3)cc2)n(Cc2ccc(Cl)cc2)c1=O [Compound I-1456] | 0.014 |
| COC(=O)[C@@H](C)Cn1c(=O)[nH]/c(=N\c2ccc(OC)c(C(F)(F)F)c2)n(Cc2ccc(Cl)cc2)c1=O [Compound I-0796] | 0.386 |
| COC(=O)[C@@H](C)Cn1c(=O)[nH]/c(=N\c2ccc(Oc3cccnc3C)cc2)n(Cc2ccc(C)cc2)c1=O [Compound I-1208] | 0.021 |
| NC(=O)CCn1c(=O)[nH]/c(=N\c2ccc(OC3CCC3)cc2)n(Cc2ccc(Cl)cc2)c1=O [Compound I-1915] | 0.023 |
| Cc1ccc(Cn2c(=O)n(CCC(=O)O)c(=O)[nH]/c2=N\c2ccc(OC(C)C)cc2C)cc1 [Compound I-2048] | 0.491 |
| COC(=O)[C@H](C)[C@H](C)n1c(=O)[nH]/c(=N\c2ccc3nc(C)ccc3c2)n(Cc2ccc(C)cc2)c1=O [Compound I-1324] | 0.009 |
| CC[C@H](C)Oc1ccc(/N=c2\[nH]c(=O)n(C[C@H](C)C(=O)O)c(=O)n2Cc2ccc(Cl)cc2)cc1 [Compound I-0755] | 0.024 |

same assay, conditions: C6BU-1 cells stably expressing human P2X3 receptor, Fluo-3 fluorescence, FDSS 3000

| Compound | IC50 [µM] |
| --- | --- |
| COC(=O)CC1(Cn2c(=O)[nH]/c(=N\c3ccc(OC(C)C)c(Cl)c3)n(Cc3ccc(C)cc3)c2=O)CC1 [Compound I-0979] | 0.006 |
| CCc1nc2ccc(/N=c3\[nH]c(=O)n(CCO)c(=O)n3Cc3ccc(Cl)cc3)cc2s1 [Compound I-1663] | 0.008 |
| COC(=O)[C@@H](C)Cn1c(=O)[nH]/c(=N\c2cccc(SC)c2)n(Cc2ccc(Cl)cc2)c1=O [Compound I-1151] | 0.046 |
| CCOc1ccc(/N=c2\[nH]c(=O)n(CC(CO)CO)c(=O)n2Cc2ccc(Cl)cc2)cc1Cl [Compound I-1906] | 0.006 |
| CCOC(=O)CCn1c(=O)[nH]/c(=N\c2ccc(OCC3CC3)cc2)n(Cc2ccc(Cl)cc2)c1=O [Compound I-1147] | 0.01 |
| COC(=O)[C@@H](C)[C@H](C)n1c(=O)[nH]/c(=N\c2ccc(OC(C)C)c(C)c2)n(Cc2ccc(Cl)cc2)c1=O [Compound I-1025] | 0.134 |
| COC(=O)[C@@H](C)Cn1c(=O)[nH]/c(=N\c2ccc(CCC3CC3)c(C)c2)n(Cc2ccc(Cl)cc2)c1=O [Compound I-1023] | 0.3 |
| Cc1ccc(Cn2c(=O)n(C[C@H](C)C(=O)O)c(=O)[nH]/c2=N\c2ccc(OC3CCOCC3)cc2)cc1 [Compound I-1074] | 0.086 |
| C[C@@H](C(=O)O)[C@H](C)n1c(=O)[nH]/c(=N\c2ccc3[nH]c(=O)[nH]c(=O)c3c2)n(Cc2ccc(Cl)cc2)c1=O [Compound I-1818] | 0.829 |
| COC(=O)CCn1c(=O)[nH]/c(=N\C2CCCCC2)n(Cc2ccc(C)cc2)c1=O [Compound I-1668] | 0.309 |
| Cc1ccc(Cn2c(=O)n(C[C@H](C)C(=O)O)c(=O)[nH]/c2=N\c2ccc(OC(F)(F)F)cc2)cc1 [Compound I-1002] | 0.298 |
| COc1ccc(Oc2ccc(/N=c3\[nH]c(=O)n(CC(CO)CO)c(=O)n3Cc3ccc(Cl)cc3)cc2)cn1 [Compound I-1843] | 0.004 |
| Cc1cc(/N=c2\[nH]c(=O)n(C[C@H](C)C(=O)O)c(=O)n2Cc2ccc(C(C)C)cc2)ccc1OC(C)C [Compound I-1017] | 0.55 |
| Cc1nc2ccc(/N=c3\[nH]c(=O)n(CC(=O)NCCO)c(=O)n3Cc3ccc(Cl)cc3)cc2s1 [Compound I-1661] | 0.006 |
| CNC(=O)c1cc(Oc2ccc(/N=c3\[nH]c(=O)n(CCO)c(=O)n3Cc3ccc(Cl)cc3)cc2)ccn1 [Compound I-1735] | 0.003 |
| C[C@@H](C(=O)O)[C@H](C)n1c(=O)[nH]/c(=N\c2ccc3sccc3c2)n(Cc2ccc(Cl)cc2)c1=O [Compound I-1590] | 0.998 |
| COC(=O)[C@@H](C)Cn1c(=O)[nH]/c(=N\c2ccc(N3CCCCC3)cc2)n(Cc2ccc(Cl)cc2)c1=O [Compound I-0954] | 0.023 |
| COC(=O)[C@@H](C)Cn1c(=O)[nH]/c(=N\c2ccc(O[C@H](C)C(F)(F)F)cc2)n(Cc2ccc(Cl)cc2)c1=O [Compound I-0942] | 0.022 |

same assay, conditions: human P2X3 receptor, Test Example 1

| Compound | IC50 [µM] |
| --- | --- |
| CC(C)(C)OC(=O)NCCn1c(=O)[nH]/c(=N\c2ccc(Oc3ccon3)cc2)n(Cc2ccc(Cl)cc2)c1=O [Compound I-2522] | 0.011 |
| CCn1c(=O)[nH]/c(=N\c2ccc(Oc3cnccn3)cc2)n(Cc2ccc(Cl)cc2)c1=O [Compound I-2642] | 0.011 |
| Cc1ccc(Cn2c(=O)n(CCC(=O)O)c(=O)[nH]/c2=N\c2ccc(Oc3ccc(C#N)cn3)cc2)cc1 [Compound I-2635] | 0.008 |
| Cn1c(=O)[nH]/c(=N\c2ccc(Oc3ncc(C(N)=O)s3)cc2)n(Cc2ccc(Cl)cc2)c1=O [Compound I-2414] | 0.003 |
| Cn1c(=O)[nH]/c(=N\c2ccc(Oc3nc(C(=O)O)cs3)cc2)n(Cc2ccc(Cl)cc2)c1=O [Compound I-2410] | 0.036 |
| CC(CO)(CO)Cn1c(=O)[nH]/c(=N\c2ccc(OCC3CC3)cc2)n(Cc2ccc(F)cc2)c1=O [Compound I-2617] | 0.042 |
| CCn1c(=O)[nH]/c(=N\c2ccc(Oc3cccc(C(=O)O)n3)cc2)n(C[C@H]2CC[C@H](C)CC2)c1=O [Compound I-2499] | 0.005 |
| Cc1nsc(Oc2ccc(/N=c3\[nH]c(=O)n(CC(CO)CO)c(=O)n3Cc3ccc(F)cc3)cc2)n1 [Compound I-2605] | 0.014 |
| Cn1c(=O)[nH]/c(=N\c2ccc(Oc3cccc(C#N)n3)c(F)c2)n(Cc2ccc(Cl)cc2)c1=O [Compound I-2493] | 0.005 |
| O=c1[nH]/c(=N\c2ccc(Oc3ccsn3)cc2)n(Cc2ccc(Cl)cc2)c(=O)n1CC(O)CO (stereo not shown) [Compound I-2514] | 0.011 |
| Cn1c(=O)[nH]/c(=N\c2ccc(Oc3cc(C(=O)O)ccn3)cc2)n(Cc2ccc(Cl)cc2)c1=O [Compound I-2391] | 0.029 |
| CCn1c(=O)[nH]/c(=N\c2ccc(Oc3cc(C(=O)O)ncn3)cc2)n(Cc2ccc(C)cc2)c1=O [Compound I-2444] | 0.008 |
| CO/N=C/c1ccc(/N=c2\[nH]c(=O)n(C[C@H](C)C(=O)OC)c(=O)n2Cc2ccc(Cl)cc2)cc1F [Compound I-0881, (S)-1-(4-chlorobenzyl)-6-(3-fluoro-4-methoxyiminomethylphenylimino)-3-(2-methoxycarbonylpropyl)-1,3,5-triazinane-2,4-dion] | 0.127 |
| Cc1ccc(Cn2c(=O)n(CCCO)c(=O)[nH]/c2=N\c2ccc(Oc3cccc(C#N)n3)cc2)cc1 [Compound I-2640] | 0.002 |
| CNC(=O)CCn1c(=O)[nH]/c(=N\c2ccc(Oc3ccon3)cc2)n(Cc2ccc(Cl)cc2)c1=O [Compound I-2527] | 0.026 |
| CCCOc1ccc(/N=c2\[nH]c(=O)n([C@H](C)CC(=O)OC)c(=O)n2Cc2ccc(C)cc2)cc1Cl [Compound I-0877] | 0.028 |
